Data from publication PMC10931682, “A Combination of Library Screening and Rational Mutagenesis Expands the Available Color Palette of the Smallest Fluorogen-Activating Protein Tag nanoFAST” (International Journal of Molecular Sciences, 2024).
Residue numbers refer to the chain shown, from its start.

Legend:
nanoFAST [1] = molecular target: T1, nanoFAST (Halorhodospira halophila, UniProt P16113, Q41K/E46Q/C69G/S72T/A84S/Y94W/T95A/F96I/D97P/Y98T/Q99S/M100R/T101G/M109L/S117R); experiment: spectrofluorometric titration, plate reader; type: binding; conditions: PBS pH 7.4, 25 °C, 0.10 µM protein; non-covalent fluorogen
T1 construct: gene pyp; FAST (engineered PYP) lacking the first 27 residues, 98 aa; C-terminal tag of three glycines and six histidines; E. coli BL21(DE3), Ni purification
T1 sequence (P16113 28-125 Q41K/E46Q/C69G/S72T/A84S/Y94W/T95A/F96I/D97P/Y98T/Q99S/M100R/T101G/M109L/S117R): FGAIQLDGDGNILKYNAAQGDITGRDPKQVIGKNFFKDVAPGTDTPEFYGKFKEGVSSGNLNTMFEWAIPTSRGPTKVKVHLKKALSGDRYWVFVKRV
Text: spectrofluorometric titration, plate reader on nanoFAST

nanoFAST [2] = molecular target: T2, nanoFAST (Halorhodospira halophila, UniProt P16113, C69G/Y94W/T95M/F96I/D97P/Y98T/Q99S/M100R/T101G); experiment: fluorescence enhancement screen, plate reader; type: binding; conditions: PBS pH 7.4, 10 µM fluorogen, 1 µM protein
T2 construct: gene pyp; FAST (engineered PYP) lacking the first 27 residues, 98 aa; C-terminal tag of three glycines and six histidines; E. coli BL21(DE3), Ni purification
T2 sequence (P16113 28-125 C69G/Y94W/T95M/F96I/D97P/Y98T/Q99S/M100R/T101G): T1 sequence (P16113 28-125 Q41K/E46Q/C69G/S72T/A84S/Y94W/T95A/F96I/D97P/Y98T/Q99S/M100R/T101G/M109L/S117R) with K14Q, Q19E, T45S, S57A, A68M, L82M, R90S

Compound	Kd (nanoFAST [1]) [µM]	fluorescence enhancement screen, plate reader (nanoFAST [2])
Cc1cc(/C=C2\SC(=S)NC2=O)c(C)cc1O [HBR-2,5-DM]	0.5 ± 0.16	–
COc1cc(/C=C2\SC(=S)NC2=O)c(OC)cc1O [HBR-DOM2, 2,5-dimethoxy-4-hydroxy-arylidene-rhodanine]	0.13 ± 0.01	significant decrease in fluorescence enhancement with the previously proposed fluorogen of the nanoFAST protein
COc1cc(/C=C2\SC(=S)NC2=O)cc(OC)c1O [HBR-DOM]	1.69 ± 0.32	–
